Measured values published in patent US12398101B2, “Herbicidal 2-azaspiro[3-5]nonane compounds” (SYNGENTA CROP PROTECTION AG, priority 2018, dated 2025).

Tests used:
Type in all cases: in vivo
Conditions in all cases: 250 g/h, evaluated after 13 days
[1] = tested on: Setaria faberi (SETFA); assay: Glasshouse herbicide test, post-emergence application
Experimental: (§1) Seeds of a variety of test species are sown in standard soil in pots (Lolium perenne (LOLPE), Setaria faberi (SETFA), Echinochloa crus-galli (ECHCG), Avena fatua (AVEFA)). After cultivation for one day (pre-emergence) or after 8 days cultivation (post-emergence) under controlled conditions in a glasshouse (at 24/16° C., day/night; 14 hours light; 65% humidity), the plants are sprayed with an aqueous spray solution derived from the formulation of the technical active ingredient in acetone/water (50:50) solution containing 0.5% Tween 20 (polyoxyethelyene sorbitan monolaurate, CAS RN 9005-64-5). Compounds are applied at 250 g/h. The test plants are then grown in a glasshouse under controlled conditions in a glasshouse (at 24/16° C., day/night; 14 hours light; 65% humidity) and watered twice daily. After 13 days for pre and post-emergence, the test is evaluated for the percentage damage caused to the plant. The biological activities are shown in the following table on a five point scale (5=80-100%; 4=60-79%; 3=40-59%; 2=20-39%; 1=0-19%).

[2] = tested on: Avena fatua (AVEFA); assay: as above
Experimental: as §1

[3] = tested on: Lolium perenne (LOLPE); assay: as above
Experimental: as §1

[4] = tested on: Echinochloa crus-galli (ECHCG); assay: as above
Experimental: as §1

[5] = tested on: Setaria faberi (SETFA); assay: Glasshouse herbicide test, pre-emergence application
Experimental: as §1

[6] = tested on: Avena fatua (AVEFA); assay: as above
Experimental: as §1

[7] = tested on: Lolium perenne (LOLPE); assay: as above
Experimental: as §1

[8] = tested on: Echinochloa crus-galli (ECHCG); assay: as above
Experimental: as §1

SMILES	percentage damage caused to the plant, five point scale, SETFA [1]	percentage damage caused to the plant, five point scale, AVEFA [2]	percentage damage caused to the plant, five point scale, LOLPE [3]	percentage damage caused to the plant, five point scale, ECHCG [4]	percentage damage caused to the plant, five point scale, SETFA [5]	percentage damage caused to the plant, five point scale, AVEFA [6]	percentage damage caused to the plant, five point scale, LOLPE [7]	percentage damage caused to the plant, five point scale, ECHCG [8]
CC#Cc1cc(C)c(C2C(=O)CC3(CC2=O)CN(S(=O)(=O)CC)C3)c(C)c1 [Compound 1.002]	5 (5=80-100%)	5 (5=80-100%)	5 (5=80-100%)	5 (5=80-100%)	5 (5=80-100%)	5 (5=80-100%)	5 (5=80-100%)	5 (5=80-100%)
CC#Cc1cc(C)c(C2C(=O)CC3(CC2=O)CN(C(=O)c2ccccn2)C3)c(OC)c1 [Compound 1.016]	5 (5=80-100%)	5 (5=80-100%)	5 (5=80-100%)	5 (5=80-100%)	5 (5=80-100%)	5 (5=80-100%)	5 (5=80-100%)	5 (5=80-100%)
CC#Cc1cc(Cl)c(C2C(=O)CC3(CC2=O)CN(C(C)=O)C3)c(OC)c1 [Compound 1.195]	5 (5=80-100%)	5 (5=80-100%)	5 (5=80-100%)	5 (5=80-100%)	5 (5=80-100%)	5 (5=80-100%)	5 (5=80-100%)	5 (5=80-100%)
CC#Cc1cc(C)c(C2C(=O)CC3(CC2=O)CN(C(=O)C(F)F)C3)c(C)c1 [Compound 1.009]	5 (5=80-100%)	5 (5=80-100%)	5 (5=80-100%)	5 (5=80-100%)	5 (5=80-100%)	5 (5=80-100%)	5 (5=80-100%)	5 (5=80-100%)
CC#Cc1cc(C)c(C2C(=O)CC3(CC2=O)CN(C(=O)C2CC2)C3)c(OC)c1 [Compound 1.020]	5 (5=80-100%)	5 (5=80-100%)	5 (5=80-100%)	5 (5=80-100%)	5 (5=80-100%)	5 (5=80-100%)	5 (5=80-100%)	5 (5=80-100%)
COc1cc(-c2ccc(F)cc2)cc(C)c1C1C(=O)CC2(CC1=O)CN(C(C)=O)C2 [Compound 1.203]	5 (5=80-100%)	5 (5=80-100%)	5 (5=80-100%)	5 (5=80-100%)	5 (5=80-100%)	5 (5=80-100%)	4 (4=60-79%)	5 (5=80-100%)
CC#Cc1cc(C)c(C2C(=O)CC3(CC2=O)CN(C(=O)NC(C)(C)C)C3)c(OC)c1 [Compound 1.018]	5 (5=80-100%)	5 (5=80-100%)	5 (5=80-100%)	5 (5=80-100%)	5 (5=80-100%)	5 (5=80-100%)	5 (5=80-100%)	5 (5=80-100%)
